Experimental data: patent US20130039871A1, “AQUEOUS COMPOSITION CONTAINED IN CONTAINER” (KAO CORPORATION, priority 2010, published 2013)

Test: Test 1-3: water evaporation rate of aqueous composition in open dish
Assay type: physicochemical
Conditions: Test 2
Experimental: Five grams of each of samples 1 to 15 having components shown in Table 1 were placed in respective dishes having an opening area of 13.85 cm^2 and were left at a humidity of 30% and a temperature of 30° C. Changes in weight of each sample were measured 1, 3, 5, 7, 12, 18, and 24 hr later. The slope of the changes in weight, the n of nX+m (X represents time (hr)) calculated by a least-squares method, was defined as the water evaporation rate (unit: mg/h), and the absolute value thereof was plotted. The test was conducted three times for each sample, and the average value thereof was determined. Note that a lower water evaporation rate means higher inhibition of evaporation.
Changes in weight of samples 15 to 25 shown in Table 3 were measured under the same conditions as in Test 1, and water evaporation rates were determined.
Changes in weight of samples of Examples 1 to 7 and Comparative Examples 1 to 7 having components shown below were measured under the same conditions as in Test 1, and water evaporation rates were determined. In addition, viscosities at 25° C. were measured with a B-type viscometer (Vismetron viscometer: model VS-A1, Rotor No. 1, 12 rotations, 30 sec).

With “polyoxyethylene(2) behenyl ether [polyoxyethylene behenyl ether]” the “Amount showing a high water-evaporation inhibiting effect” value was ≥ 0.2 % by mass and the “Amount showing a water-evaporation inhibiting effect” value was ≥ 0.1 % by mass.
